Results taken from ChEMBL document CHEMBL1151220, “Further bioactive piperidine alkaloids from the flowers and green fruits of Cassia spectabilis” (2004).
Activity calls are given as the source filed them. No cut-off for these calls is given here.

Key:
Format in all cases: functional
Saccharomyces cerevisiae [1] = test: DNA damaging activity against RS 321N Saccharomyces cerevisiae
Saccharomyces cerevisiae [2] = test: DNA damaging activity against DNA RS 322YK ([…]) Saccharomyces cerevisiae
Saccharomyces cerevisiae [3] = test: DNA damaging activity against RS 188N (RAD+) Saccharomyces cerevisiae

| SMILES | Activity (Saccharomyces cerevisiae [1]) | Activity (Saccharomyces cerevisiae [2]) | Activity (Saccharomyces cerevisiae [3]) | IC12 (Saccharomyces cerevisiae [1]) [µg/mL] |
| --- | --- | --- | --- | --- |
| CC(=O)CCCCCCCCCCCC[C@H]1CC[C@@H](O)[C@@H](CO)N1 | inactive | inactive | inactive |  |
| CC(=O)CCCCCCCCCCCC[C@@H]1CC[C@@H](O)[C@@H](C)N1 | inactive | inactive | inactive |  |
| CC(=O)CCCCCCCCCCCC[C@H]1CC[C@@H](OC(C)=O)[C@@H](C)N1 |  |  |  | 32 |
| CC(=O)CCCCCCCCCCCC[C@H]1CC[C@@H](O)[C@@H](C)N1 |  |  |  | 17 |
| COC1=C(N)C(=O)c2nc(-c3nc(C(=O)O)c(C)c(-c4ccc(OC)c(OC)c4O)c3N)ccc2C1=O [STREPTONIGRIN] |  |  |  | 4 |
